# Assay results published in ChEMBL document CHEMBL3217434, “Matrix-based multiparameter optimisation of glucokinase activators: the discovery of AZD1092” (Medchemcomm, 2011).
# How the values were obtained:
# [1] = Solubility of the compound; assay type: physicochemical
# [2] = Volume of distribution at steady state in rat; assay type: ADME, organism-based; details: in vivo, read-out: Vdss
# [3] = Clearance in rat; assay type: ADME, organism-based; details: in vivo
# [4] = Oral bioavailability in rat; assay type: ADME, organism-based; details: in vivo
# [5] = Lipophilicity, log D of the compound; assay type: physicochemical; details: octanol/water
# [6] = biological target: Voltage-gated inwardly rectifying potassium channel KCNH2 (Homo sapiens, UniProt Q12809); assay: Inhibition of human ERG
# Sequence of Voltage-gated inwardly rectifying potassium channel KCNH2 (Q12809 whole entry): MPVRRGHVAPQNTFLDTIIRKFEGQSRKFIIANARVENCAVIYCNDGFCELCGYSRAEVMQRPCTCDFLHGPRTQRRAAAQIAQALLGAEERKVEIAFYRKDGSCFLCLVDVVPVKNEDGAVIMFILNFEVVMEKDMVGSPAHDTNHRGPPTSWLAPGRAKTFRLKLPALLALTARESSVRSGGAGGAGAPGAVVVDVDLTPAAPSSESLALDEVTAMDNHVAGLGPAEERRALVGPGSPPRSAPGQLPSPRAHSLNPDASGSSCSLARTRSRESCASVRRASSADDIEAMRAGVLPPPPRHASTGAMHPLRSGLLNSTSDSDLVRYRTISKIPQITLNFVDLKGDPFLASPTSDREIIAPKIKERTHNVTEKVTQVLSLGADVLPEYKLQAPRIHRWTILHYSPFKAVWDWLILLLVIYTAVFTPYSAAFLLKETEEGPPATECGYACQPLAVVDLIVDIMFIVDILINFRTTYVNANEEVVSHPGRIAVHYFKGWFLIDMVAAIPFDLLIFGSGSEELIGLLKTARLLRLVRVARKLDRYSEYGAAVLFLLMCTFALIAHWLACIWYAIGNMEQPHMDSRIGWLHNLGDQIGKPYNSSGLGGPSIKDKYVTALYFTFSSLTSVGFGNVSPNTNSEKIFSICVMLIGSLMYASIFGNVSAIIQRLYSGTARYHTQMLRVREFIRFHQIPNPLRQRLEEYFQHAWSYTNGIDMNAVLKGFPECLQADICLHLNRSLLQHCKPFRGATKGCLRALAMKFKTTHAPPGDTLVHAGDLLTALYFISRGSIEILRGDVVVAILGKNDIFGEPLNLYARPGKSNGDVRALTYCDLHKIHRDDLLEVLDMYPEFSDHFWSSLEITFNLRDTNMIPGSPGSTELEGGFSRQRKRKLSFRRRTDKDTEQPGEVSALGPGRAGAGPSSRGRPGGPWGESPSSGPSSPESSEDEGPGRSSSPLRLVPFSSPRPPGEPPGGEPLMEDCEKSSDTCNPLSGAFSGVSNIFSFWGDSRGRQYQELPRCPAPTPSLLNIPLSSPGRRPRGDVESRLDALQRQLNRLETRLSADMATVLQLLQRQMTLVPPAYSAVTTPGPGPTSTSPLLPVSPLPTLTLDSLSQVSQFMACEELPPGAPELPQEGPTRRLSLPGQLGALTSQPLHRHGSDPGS
# [7] = Apparent permeability from apical to basolateral side of human Caco2 cells; assay type: ADME, cell-based; details: Caco-2
# [8] = biological target: T1, Hexokinase-4 (Homo sapiens, UniProt P35557); assay: Activation of glucokinase (unknown origin)
# T1 sequence (P35557 whole entry): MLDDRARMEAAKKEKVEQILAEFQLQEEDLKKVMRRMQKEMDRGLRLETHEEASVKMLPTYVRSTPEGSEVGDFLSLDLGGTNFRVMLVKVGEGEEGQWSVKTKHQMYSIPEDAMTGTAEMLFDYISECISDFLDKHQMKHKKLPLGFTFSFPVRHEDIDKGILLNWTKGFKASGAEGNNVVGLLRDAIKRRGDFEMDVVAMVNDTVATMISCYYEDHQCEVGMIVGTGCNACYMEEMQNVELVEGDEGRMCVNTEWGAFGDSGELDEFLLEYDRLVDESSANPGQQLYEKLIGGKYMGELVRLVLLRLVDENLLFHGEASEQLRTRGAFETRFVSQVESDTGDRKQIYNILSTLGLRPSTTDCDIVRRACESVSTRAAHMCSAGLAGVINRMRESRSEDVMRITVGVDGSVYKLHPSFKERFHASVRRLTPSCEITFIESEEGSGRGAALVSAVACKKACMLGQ
# [9] = Volume of distribution at steady state in dog; assay type: ADME, organism-based, Canis lupus familiaris; details: in vivo, read-out: Vdss
# [10] = Clearance in dog; assay type: ADME, organism-based, Canis lupus familiaris; details: in vivo
# [11] = Oral bioavailability in dog; assay type: ADME, organism-based, Canis lupus familiaris; details: in vivo
# [12] = tested on: Rattus norvegicus; assay: Antidiabetic activity in high fat fed Zucker rat assessed as reduction of AUC of plasma glucose level at 10 mg/kg by oral glucose tolerance test; assay type: functional; parameters: scale not given: the % may be the effect or the level left
# [13] = tested on: Rattus norvegicus; assay: Antidiabetic activity in high fat fed Zucker rat assessed as reduction of AUC of plasma glucose level at 3 mg/kg by oral glucose tolerance test; assay type: functional; parameters: scale not given: the % may be the effect or the level left
Compound,solubility [1],Vd [2],clearance [3],bioavailability [4],logD [5],Papp A→B [7],EC50 [8],Vd [9],clearance [10],bioavailability [11],IC50 [6],Activity [12],Activity [13]
COC[C@H](C)Oc1cc(Oc2ccc(S(C)(=O)=O)cc2)cc(C(=O)Nc2nccs2)c1,–,0.3 L/kg,11 mL/min/kg,28%,–,–,–,0.8 L/kg,7.2 mL/min/kg,11%,–,29%,–
COC[C@H](C)Oc1cc(Oc2ccc(S(C)(=O)=O)cc2)cc(C(=O)Nc2nc(C)ns2)c1,–,0.2 L/kg,5.6 mL/min/kg,71%,–,–,–,0.3 L/kg,0.5 mL/min/kg,56%,–,–,27%

# Further lines, with some results ahead:
solubility [1],Vd [2],clearance [3],bioavailability [4],logD [5],Papp A→B [7],EC50 [8],Vd [9],clearance [10],bioavailability [11],Compound,IC50 [6],Activity [12],Activity [13]
730 µM,1.1 L/kg,34 mL/min/kg,27%,1.8,2.3 ×10⁻⁶ cm/s,50 nM,–,–,–,COC[C@H](C)Oc1cc(Oc2ccc(C(=O)N(C)C)cc2)cc(C(=O)Nc2cc[nH]n2)c1,> 95000 nM,–,–
> 1000 µM,1.9 L/kg,31 mL/min/kg,78%,1.7,1.7 ×10⁻⁶ cm/s,40 nM,–,–,–,C[C@@H](CO)Oc1cc(Oc2ccc(C(=O)N(C)C)cc2)cc(C(=O)Nc2ccn(C)n2)c1,> 100000 nM,–,–
350 µM,1.8 L/kg,14 mL/min/kg,30%,1.8,1.8 ×10⁻⁶ cm/s,30 nM,1.3 L/kg,14 mL/min/kg,51%,C[C@@H](CO)Oc1cc(Oc2ccc(C(=O)N3CCC3)cc2)cc(C(=O)Nc2ccn(C)n2)c1,70000 nM,–,24%
